From patent US6451790B1, “Azadioxacycloalkenes and their use for combating harmful fungi and animal pests” (BASF Aktiengesellschaft, priority 1999, dated 2002) come the findings set out here.

SMILES strings stand for the structures.

Format in all cases: in vivo
Test [1] has as its system Puccinia recondita. The experiment in a line: Curative action against Puccinia recondita on wheat (wheat leaf rust). The following applies: 16 ppm, curative spray 1 day after inoculation, wheat 'Kanzler', 7 days; untreated 100%.
In test [2] the test system is Botrytis cinerea. As to the kind of experiment: Action against Botrytis cinerea on bell pepper leaves. The settings on record: 250 ppm, spray 1 day before inoculation, bell pepper seedlings, after 5 days; untreated 80%. The source says: The active compounds, separately or together, were formulated as a 10% emulsion in a mixture of 70% by weight of cyclohexanone, 20% by weight of Nekanil® LN (Lutensol® AP6, wetting agent having emulsifying and dispersant action based on ethoxylated alkylphenols) and 10% by weight of Wettol® EM (nonionic emulsifier based on ethoxylated castor oil) and diluted with water to the desired concentration.
Bell pepper seedlings of the variety “Neusiedler Ideal Elite” were, after 4 to 5 leaves were well developed, sprayed to run-off point with an aqueous active compound formulation which had been made up from a stock solution consisting of 10% of active compound, 63% of cyclohexanone and 27% of emulsifier. The next day, the treated plants were inoculated with a spore suspension of Botrytis cinerea which contained 1.7×10^6 spores/ml in an aqueous 2% strength biomalt solution. The test plants were subsequently placed in a climatized chamber at 22-24° C. and high atmospheric humidity. After 5 days, the extent of the fungal infection on the leaves could be determined visually in %.

For test [3], the system named is Pyricularia oryzae. The following applies: 16 ppm, protective spray 1 day before inoculation, rice 'Tai-Nong 67', 6 days; untreated 90%.

As to `CO/N=C(/C(=O)OC)c1ccccc1COc1ccn(-c2ccc(Cl)cc2)n1` [Compound A], the “infection (extent of rust fungus development on the leaves)” value in test [1] stood at 60%. Further, the “infection (extent of fungal infection on the leaves)” value in test [2] stood at 40%.
Turning to `CO/N=C(/C1=NOCCO1)c1ccccc1COc1ccccc1C` [Compound B], the “infection (extent of development of the disease on the leaves)” value in test [3] is 40%. For the same molecule, the “infection (extent of rust fungus development on the leaves)” value in test [1] was 90%.
For the molecule `CO/N=C(/C1=NOCCO1)c1ccccc1COc1ccn(-c2ccc(Cl)cc2)n1` [Compound I-1, (ortho-[1-{4-chlorophenyl}-pyrazol-3-yl-oxymethyl]-phenyl)(5,6-dihydro-[1,4,2]dioxazin-3-yl)methanone O-methyl oxime], the “infection (extent of development of the disease on the leaves)” value in test [3] is on record as 10%. Besides, in test [1], the “infection (extent of rust fungus development on the leaves)” value is on record as “no infection”. Further, the “infection (extent of fungal infection on the leaves)” value in test [2] came out at 3%.
